Target: human CYCLIC GMP-AMP SYNTHASE (h-cGAS) (Homo sapiens, UniProt Q8N884)
Assay: IFN-luciferase reporter dose response in HT-DNA-stimulated THP-1 cells; LC-MS/MS of intracellular cGAMP in RAW KO-cGAS cells expressing h-cGAS
Format: cell-based

Chain of human CYCLIC GMP-AMP SYNTHASE (h-cGAS) (Q8N884 whole entry): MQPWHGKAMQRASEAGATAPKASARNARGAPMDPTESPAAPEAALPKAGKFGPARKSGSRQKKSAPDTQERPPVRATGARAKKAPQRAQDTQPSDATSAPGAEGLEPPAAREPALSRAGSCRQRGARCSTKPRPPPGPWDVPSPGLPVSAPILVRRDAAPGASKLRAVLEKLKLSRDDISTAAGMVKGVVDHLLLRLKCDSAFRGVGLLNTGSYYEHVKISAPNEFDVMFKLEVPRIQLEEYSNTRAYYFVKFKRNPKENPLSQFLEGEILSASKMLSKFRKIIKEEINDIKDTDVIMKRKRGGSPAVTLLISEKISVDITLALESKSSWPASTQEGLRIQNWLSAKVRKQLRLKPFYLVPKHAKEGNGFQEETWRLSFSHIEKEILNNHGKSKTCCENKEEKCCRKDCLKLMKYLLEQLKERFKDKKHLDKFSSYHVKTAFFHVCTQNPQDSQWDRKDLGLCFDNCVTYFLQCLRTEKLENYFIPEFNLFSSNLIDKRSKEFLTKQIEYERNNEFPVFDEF

## RU.521
  IC50: ~800 nM

From article PMC7200739, “Small molecule inhibition of human cGAS reduces total cGAMP output and cytokine expression in cells” (Scientific Reports, 2020)
